Source: patent US11655254B2, “Substituted piperazines as BTK inhibitors” (HUTCHISON MEDIPHARMA LIMITED, priority 2020, dated 2023)

What was measured:
[1] = target: Phosphorylated BTK in Ramos cells (Homo sapiens (Human), UniProt Q06187); assay: Determination of phosphorylated BTK in Ramos cells (BTK phospho-Y223 HTRF); format: cell-based; details: Ramos cells stimulated with immunoglobulin M 10 μg/mL and hydrogen peroxide 3.3 mM, 10 minutes
Experimental: Ramos cells were starved in PRMI 1640 medium with 1% FBS for 2 hours. The starved Ramos cells were diluted with Hank's balanced salt solution to 5.0×10^6 cells/ml, seeded in a 96-well plate with 20 μL/well (1.0×10^5 cells/well), and cultured in a 5% CO2, 37° C. cell incubator. […]
The 384 well plate incubated overnight in the constant temperature incubator was taken out to detect the luminescence signal using the Envision microwell plate reader at the […]. The reading value at 665 nm/615 nm of each well multiplied by 10^4 was used as the signal value of each well.
The average signal value of the wells supplemented with the mixed solution of human immunoglobulin M (final concentration was 10 μg/mL) and hydrogen peroxide (final concentration was 3.3 mM) without the test compound was regarded as the high value, and the average signal value of the wells without immunoglobulin M stimulation and without the test compound was regarded as the low value. According to the signal value in each well, the inhibition ratio (%) of each concentration of compounds was calculated, and the 205 model in XL-Fit 5.3 software (ID Business Solutions Limited) was used to obtain an IC50 value.
The inhibition ratio is calculated as follows: inhibition ratio (%)=100%−{(treating well for the test compound−negative control treating well)/(control treating well for anti-human immunoglobulin M−negative control treating well)}×100%, wherein, […]

[2] = Drug concentration in plasma of mice of the B cell activation study; format: in vivo; details: C57BL/6, plasma; mouse, 20 mg/kg oral, 16 h after administration
Experimental: The animals of each group were administered, then were placed in CO2 for anesthesia at designated time points, blood samples were taken from […] via retro-orbital bleeding, and heparin was used for anticoagulation; 90 μL of whole blood was taken from mice of each group, and added to a 96 well culture plate, and anti-mouse IgD antibody (BIO-RAD, Cat #MCA4693) was added to each well to a final concentration of 0.01 μg/μL (respectively for each drug-treated group and anti-IgD antibody-inducted vehicle group); in addition, 90 μL of whole blood of mice in the vehicle group was taken and added to the 96-well culture plate, and PBS (phosphate buffer, GIBCO, Cat # C20012500BT) was added to each well to a final concentration of 0.01 μg/μL (namely, the vehicle control group); Each group was mixed well and incubated in a 37° C./5% CO2 incubator for 4 hours. In addition, the blood of mice in the drug-treated group was centrifuged to separate plasma for blood concentration analysis.

[3] = test system: B cell activation in mice whole blood (BTK target); assay: In vivo inhibitory effect on BTK target: anti-IgD antibody-induced B cell activation in mice whole blood after oral dosing; design: species or system mouse; details: 20 mg/kg oral gavage, single administration, 16 h
Excerpt: Objects: B cells in mice whole blood were induced and activated by the anti-IgD antibody, and the inhibitory effect of the compound of the present invention on B cell activation in vivo was studied, so as to determine the inhibitory effect of the compound of the present invention on the BTK target in vivo.
Methods: C57BL/6 mice (female, 18-20 g, purchased from Shanghai Lingchang Biotechnology Co., Ltd.) were grouped according to Table 1.
In addition, the blood of mice in the drug-treated group was centrifuged to separate plasma for blood concentration analysis.
Calculation for Inhibition Ratio: Inhibition ratio=(percentage of B cell activation ratio in anti-IgD antibody-induced vehicle group-percentage of B cell activation ratio in drug-treated group)/(percentage of B cell activation ratio in anti-IgD antibody-induced vehicle group-percentage of B cell activation ratio in vehicle control group)×100%
All data are represented by mean±standard error. For the comparison between each drug-treated group and the anti-IgD antibody-induced vehicle group, p value was calculated by Graphpad Prism using one-way ANOVA analysis of variance and Dunnett's test, and for the comparison between each drug-treated group, p value was calculated by using unpaired t test.

[4] = test system: CIA (collagen induced arthritis) rats; assay: Rat arthritis model induced by type II collagen (CIA); format: in vivo; details: compared with vehicle control group
Experimental: An appropriate amount of bovine type II collagen (CII, Chondrex (Redmond, Wash., USA), Cat #20021) was weighed and dissolved in 0.1 mole of acetic acid (SPGC Sinopharm Chemical Reagent Co., Ltd (Shanghai, P.R. China), Cat #: 10000218.), which was formulated into a solution with a concentration of 6 mg/mL, stirred at 4° C. overnight, and added with an equal volume of Freund's incomplete adjuvant (Sigma-Aldrich.(St. Louis, Mo., USA), Cat #: SLBW0366.), fully emulsified to prepare an emulsion with a CII concentration of 3 mg/mL.
Female Lewis rats were purchased from Beijing Vital River Laboratory Animal Technology Co., Ltd. (certificate number 20200928Aazz0619000579, initial body weight of 110-130 grams), and 6 rats were randomly selected as a normal group; and all of the remaining rats were immunized. In the first immunization on day 0, the rats except those in the normal group were anesthetized with isoflurane (Hebei Yipin Pharmaceutical Co., Ltd., Lot: C002170601.), and then disinfected with 75% alcohol, and 0.2 mL of emulsion was injected intradermally at the base of the tail thereof. A second challenge was carried out on day 7, and 0.2 mL of emulsion was intradermally injected using the same method. Once the animals developed symptoms on day 10, the incidence conditions thereof were closely monitored.
After grouping, the normal group was not administered, and the rats in the other groups were administered with the control vehicle, 0.25 mg/kg and 4 mg/kg of the reference GDC-0853, and each dose of compound 1 orally once a day until the end of the experiment.
The paw volume was measured on day 10 after immunization, and the left and right hind paw volumes (V) were measured every day after the paw volume increase was detected.
The arthrosis paw volumes of the left and right hind limbs of each animal were measured, and the average paw volume (APV) was calculated according to the following formula: Average paw volume APV=(Vleft+Vright)/2
The average arthrosis paw volume of each animal before administration was used as the baseline (or considered 100% inhibition of inflammation). […]
The area under the curve (AUC) of the average paw volume swelling is the area under the curve of the arthrosis score swelling calculated by the trapezoid method, and the calculation formula is: AUCAPS=1/2×(APSd1+APSd2)×(d2−d1)+1/2×(APSd2+APSd3)×(d3−d2)+ . . . +1/2×(APSdn+APSd(n-1))×(dn−dn-1). […]
ED50 is calculated by XLfit software according to the AUC inhibition ratio of the area under the curve of the average paw volume swelling. […]

[5] = Stability test in liver microsomes (rat); format: in vitro ADME; details: rat liver microsomes 0.5 mg/mL, compound 1 μM, 37° C.
Experimental: The test compound stock solution was diluted with an organic solvent (usually a mixture of acetonitrile, methanol and water with various ratios, depending on the solubility of the compound, if necessary, 1 N hydrochloric acid or 1 N sodium hydroxide would be added to facilitate solubilization) to the 0.1 mM (the final concentration of the compound in the reaction system was 1 μM) and the concentration percentage of the organic solvents in the incubation system no more than 1% (wherein the percentage of DMSO was required to be no more than 0.1%). An appropriate amount of 100 mM NADP, 500 mM G-6-P and 100 Unit/mL G-6-PDH were mixed and diluted with ultrapure water (the final system contains 1 mM NADP, 5 mM G-6-P and 1 Unit/mL G-6-PDH), pre-incubated in a 37° C. water bath for 10 minutes and then placed on ice for use as a NADPH regeneration solution. 20 mg/mL liver microsomes solution and 200 mM phosphate buffer were mixed, and diluted with ultrapure water to give a liver microsomes solution containing 2.5 mg/mL liver microsomes (the final concentration of the reaction system is 0.5 mg/mL) and 50 mM phosphate buffer. […]
The percentage of the remaining compound after 30 minutes of incubation comparing with that in the 0-minute sample was calculated using the peak area ratio of the compound to the internal standard as an indicator, to evaluate the metabolic stability of the compound.

Sequence of Phosphorylated BTK in Ramos cells (Q06187 whole entry): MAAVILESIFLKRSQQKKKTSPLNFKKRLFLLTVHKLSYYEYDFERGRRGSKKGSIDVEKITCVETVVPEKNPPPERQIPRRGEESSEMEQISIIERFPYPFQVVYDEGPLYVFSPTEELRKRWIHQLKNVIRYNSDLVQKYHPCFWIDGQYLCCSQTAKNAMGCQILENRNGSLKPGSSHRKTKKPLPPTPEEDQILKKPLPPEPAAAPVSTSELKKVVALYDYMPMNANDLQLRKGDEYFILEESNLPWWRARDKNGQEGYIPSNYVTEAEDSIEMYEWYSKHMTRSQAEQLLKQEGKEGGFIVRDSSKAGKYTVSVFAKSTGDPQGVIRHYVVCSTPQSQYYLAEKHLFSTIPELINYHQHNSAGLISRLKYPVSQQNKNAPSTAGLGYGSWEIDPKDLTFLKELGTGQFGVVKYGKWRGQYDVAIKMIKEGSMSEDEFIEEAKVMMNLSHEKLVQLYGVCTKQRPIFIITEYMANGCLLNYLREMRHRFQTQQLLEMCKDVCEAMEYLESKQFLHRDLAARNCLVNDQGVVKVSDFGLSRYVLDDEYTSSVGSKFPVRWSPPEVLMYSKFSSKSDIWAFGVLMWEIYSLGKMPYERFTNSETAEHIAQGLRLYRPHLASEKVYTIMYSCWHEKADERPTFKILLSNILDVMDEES

Structure (SMILES)	IC50 [1] [nM]	concentration at 16 h [2] [ng/mL]	Inhibition ratio (%) on B cell activation [3] [%]	Inhibition ratio (%) on B cell activation ([3]; listed as compound 2) [%]	effect on paw volume ([4]; 0.25 mg/kg oral QD)	effect on paw volume ([4]; 4 mg/kg oral QD)	RLM, percentage of the remaining compound after 30 minutes of incubation [5] [%]
C[C@@H]1CN(C2COC2)C[C@H](C)N1c1ccc(Nc2cc(-c3ccnc(-n4ccn5c6c(cc5c4=O)CC(C)(C)C6)c3CO)cn(C)c2=O)nc1 [Compound 2]	6	6.6 ± 2.51	43	43	–	–	–
C[C@H]1CN(C2COC2)C[C@H](C)N1c1ccc(Nc2cc(-c3ccnc(-n4ncn5c6c(cc5c4=O)CC(C)(C)C6)c3CO)cn(C)c2=O)nc1 [Compound 4, 2-(5-((5-((2S,6S)-2,6-dimethyl-4-(oxetan-3-yl)piperazin-1-yl)pyridin-2-yl)amino)-3′-(hydroxymethyl)-1-methyl-6-oxo-1,6-dihydro-[3,4′-bipyridin]-2′-yl)-7,7-dimethyl-7,8-dihydro-2H-cyclopenta[4,5]pyrrolo[1,2-d][1,2,4]triazin-1(6H)-one]	3	–	–	–	–	–	–
C[C@H]1CN(C2COC2)CCN1c1ccc(Nc2cc(-c3ccnc(N4CCn5c(cc6c5CC(C)(C)C6)C4=O)c3CO)cn(C)c2=O)nc1 [GDC-0853, fenebrutinib, reference compound]	–	5.01 ± 2.26	–	–	no improvement effect	significantly reduced	81.0
